Article PMC4858680, “A platinum-based hybrid drug design approach to circumvent acquired resistance to molecular targeted tyrosine kinase inhibitors” (Scientific Reports, 2016)
Where two headings read alike, the source gives them in different places.

Experiments:
[1] = biological target: T1, FLT3(N841I) (Homo sapiens, UniProt P36888, N841I)
T1 sequence (P36888 27-993 N841I): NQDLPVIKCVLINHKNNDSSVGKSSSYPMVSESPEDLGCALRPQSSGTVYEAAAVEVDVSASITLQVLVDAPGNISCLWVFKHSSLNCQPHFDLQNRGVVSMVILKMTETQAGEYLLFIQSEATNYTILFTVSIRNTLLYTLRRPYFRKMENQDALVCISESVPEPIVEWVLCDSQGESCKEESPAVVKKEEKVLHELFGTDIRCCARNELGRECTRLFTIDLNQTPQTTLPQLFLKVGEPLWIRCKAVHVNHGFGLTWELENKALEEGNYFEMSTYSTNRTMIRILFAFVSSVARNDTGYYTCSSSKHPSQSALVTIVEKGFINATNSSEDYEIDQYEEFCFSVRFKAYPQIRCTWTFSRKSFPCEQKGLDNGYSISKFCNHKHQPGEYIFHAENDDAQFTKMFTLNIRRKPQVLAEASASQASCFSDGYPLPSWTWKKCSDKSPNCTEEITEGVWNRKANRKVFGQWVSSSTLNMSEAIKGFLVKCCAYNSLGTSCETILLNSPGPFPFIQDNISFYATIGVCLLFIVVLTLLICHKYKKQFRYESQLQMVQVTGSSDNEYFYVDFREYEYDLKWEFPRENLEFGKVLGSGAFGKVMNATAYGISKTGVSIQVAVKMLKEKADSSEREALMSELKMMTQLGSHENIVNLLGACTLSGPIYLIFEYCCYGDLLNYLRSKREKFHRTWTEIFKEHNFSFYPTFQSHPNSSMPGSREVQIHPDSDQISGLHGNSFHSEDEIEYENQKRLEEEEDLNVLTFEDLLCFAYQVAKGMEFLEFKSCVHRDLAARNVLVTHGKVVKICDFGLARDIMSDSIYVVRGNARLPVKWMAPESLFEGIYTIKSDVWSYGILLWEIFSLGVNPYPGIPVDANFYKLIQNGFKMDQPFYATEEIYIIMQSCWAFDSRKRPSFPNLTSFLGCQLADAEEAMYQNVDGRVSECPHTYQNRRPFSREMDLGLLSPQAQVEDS

[2] = biological target: T2, EPHB1 (Homo sapiens, UniProt P54762); conditions: 10 μM
T2 sequence (P54762 18-984): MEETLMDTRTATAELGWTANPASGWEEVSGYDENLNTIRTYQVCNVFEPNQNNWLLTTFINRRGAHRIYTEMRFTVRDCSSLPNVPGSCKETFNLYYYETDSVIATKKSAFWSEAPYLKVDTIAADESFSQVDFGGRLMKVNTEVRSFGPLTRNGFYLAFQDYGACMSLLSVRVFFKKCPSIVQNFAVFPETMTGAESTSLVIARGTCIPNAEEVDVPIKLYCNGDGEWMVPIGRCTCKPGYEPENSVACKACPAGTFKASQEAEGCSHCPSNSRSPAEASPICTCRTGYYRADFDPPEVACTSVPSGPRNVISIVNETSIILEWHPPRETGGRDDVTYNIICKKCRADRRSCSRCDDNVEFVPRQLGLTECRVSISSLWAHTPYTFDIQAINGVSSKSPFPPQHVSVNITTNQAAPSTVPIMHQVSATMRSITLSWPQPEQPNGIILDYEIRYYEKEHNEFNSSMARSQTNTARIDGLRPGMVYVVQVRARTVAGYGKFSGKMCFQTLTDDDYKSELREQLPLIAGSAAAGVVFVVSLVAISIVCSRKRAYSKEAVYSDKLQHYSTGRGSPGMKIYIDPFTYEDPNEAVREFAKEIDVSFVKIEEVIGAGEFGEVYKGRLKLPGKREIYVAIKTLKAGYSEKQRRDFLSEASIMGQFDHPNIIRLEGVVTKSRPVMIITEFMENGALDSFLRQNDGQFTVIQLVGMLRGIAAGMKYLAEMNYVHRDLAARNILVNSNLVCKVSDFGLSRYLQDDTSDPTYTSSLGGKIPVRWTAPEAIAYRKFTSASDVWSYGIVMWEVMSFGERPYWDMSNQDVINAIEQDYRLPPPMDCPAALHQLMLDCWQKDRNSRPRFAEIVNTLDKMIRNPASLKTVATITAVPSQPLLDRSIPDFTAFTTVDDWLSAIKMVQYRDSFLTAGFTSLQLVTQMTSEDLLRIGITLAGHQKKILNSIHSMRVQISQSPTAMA

[3] = biological target: T3, MST1R (Homo sapiens, UniProt Q04912); type: binding; conditions: 10 μM
T3 construct: purchased DiscoveRx KINOMEscan
T3 sequence (Q04912 25-1400): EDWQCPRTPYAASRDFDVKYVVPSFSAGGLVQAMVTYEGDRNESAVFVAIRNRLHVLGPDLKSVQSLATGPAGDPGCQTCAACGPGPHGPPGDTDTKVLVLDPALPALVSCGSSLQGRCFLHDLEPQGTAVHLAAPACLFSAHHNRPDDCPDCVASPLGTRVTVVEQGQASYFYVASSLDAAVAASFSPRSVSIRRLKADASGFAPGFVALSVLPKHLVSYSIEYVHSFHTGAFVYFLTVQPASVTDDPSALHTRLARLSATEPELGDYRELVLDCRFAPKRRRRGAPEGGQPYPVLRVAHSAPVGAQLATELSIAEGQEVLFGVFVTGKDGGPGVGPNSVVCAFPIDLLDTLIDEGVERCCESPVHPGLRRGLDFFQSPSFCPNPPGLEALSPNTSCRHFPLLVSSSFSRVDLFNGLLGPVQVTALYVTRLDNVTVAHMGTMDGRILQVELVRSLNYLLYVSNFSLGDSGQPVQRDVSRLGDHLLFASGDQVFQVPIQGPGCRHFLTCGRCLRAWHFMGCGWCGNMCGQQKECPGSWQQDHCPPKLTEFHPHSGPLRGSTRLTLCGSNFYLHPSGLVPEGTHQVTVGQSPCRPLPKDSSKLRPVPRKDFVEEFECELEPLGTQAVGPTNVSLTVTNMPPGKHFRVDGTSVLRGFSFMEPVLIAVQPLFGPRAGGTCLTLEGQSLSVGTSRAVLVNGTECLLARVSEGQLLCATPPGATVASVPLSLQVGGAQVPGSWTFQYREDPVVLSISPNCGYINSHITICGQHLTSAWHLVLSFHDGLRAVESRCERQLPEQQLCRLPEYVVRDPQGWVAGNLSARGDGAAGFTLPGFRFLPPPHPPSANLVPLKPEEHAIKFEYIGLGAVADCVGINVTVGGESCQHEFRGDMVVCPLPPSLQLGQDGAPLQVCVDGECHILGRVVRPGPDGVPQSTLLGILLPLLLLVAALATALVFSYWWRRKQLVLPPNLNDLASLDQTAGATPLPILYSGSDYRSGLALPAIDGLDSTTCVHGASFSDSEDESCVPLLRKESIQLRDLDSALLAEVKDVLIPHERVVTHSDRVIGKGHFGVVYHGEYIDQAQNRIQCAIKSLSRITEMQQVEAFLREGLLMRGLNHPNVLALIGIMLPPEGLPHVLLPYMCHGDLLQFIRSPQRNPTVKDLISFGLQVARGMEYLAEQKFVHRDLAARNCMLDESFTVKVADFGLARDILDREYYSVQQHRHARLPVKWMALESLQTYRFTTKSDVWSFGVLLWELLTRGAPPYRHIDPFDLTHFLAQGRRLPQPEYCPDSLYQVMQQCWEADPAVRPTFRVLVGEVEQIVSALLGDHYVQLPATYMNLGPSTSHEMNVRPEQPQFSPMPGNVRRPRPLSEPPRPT

[4] = biological target: FRK (Homo sapiens, UniProt P42685); conditions: 10 μM
FRK, sequence (P42685 whole entry): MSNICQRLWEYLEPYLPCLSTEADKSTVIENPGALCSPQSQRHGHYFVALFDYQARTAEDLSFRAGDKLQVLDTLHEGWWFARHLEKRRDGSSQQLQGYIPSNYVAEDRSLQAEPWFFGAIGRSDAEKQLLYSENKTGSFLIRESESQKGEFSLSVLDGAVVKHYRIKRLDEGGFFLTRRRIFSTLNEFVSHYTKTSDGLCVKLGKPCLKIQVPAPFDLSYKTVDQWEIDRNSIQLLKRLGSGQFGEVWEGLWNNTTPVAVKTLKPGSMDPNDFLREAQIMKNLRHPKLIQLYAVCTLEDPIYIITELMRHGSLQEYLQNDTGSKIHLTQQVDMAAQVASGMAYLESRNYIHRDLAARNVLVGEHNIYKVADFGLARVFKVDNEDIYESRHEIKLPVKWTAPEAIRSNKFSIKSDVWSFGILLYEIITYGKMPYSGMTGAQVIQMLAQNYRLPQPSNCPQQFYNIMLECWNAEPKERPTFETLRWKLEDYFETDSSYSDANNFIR

[5] = biological target: FYN (Homo sapiens, UniProt P06241); conditions: 10 μM
FYN, sequence (P06241 whole entry): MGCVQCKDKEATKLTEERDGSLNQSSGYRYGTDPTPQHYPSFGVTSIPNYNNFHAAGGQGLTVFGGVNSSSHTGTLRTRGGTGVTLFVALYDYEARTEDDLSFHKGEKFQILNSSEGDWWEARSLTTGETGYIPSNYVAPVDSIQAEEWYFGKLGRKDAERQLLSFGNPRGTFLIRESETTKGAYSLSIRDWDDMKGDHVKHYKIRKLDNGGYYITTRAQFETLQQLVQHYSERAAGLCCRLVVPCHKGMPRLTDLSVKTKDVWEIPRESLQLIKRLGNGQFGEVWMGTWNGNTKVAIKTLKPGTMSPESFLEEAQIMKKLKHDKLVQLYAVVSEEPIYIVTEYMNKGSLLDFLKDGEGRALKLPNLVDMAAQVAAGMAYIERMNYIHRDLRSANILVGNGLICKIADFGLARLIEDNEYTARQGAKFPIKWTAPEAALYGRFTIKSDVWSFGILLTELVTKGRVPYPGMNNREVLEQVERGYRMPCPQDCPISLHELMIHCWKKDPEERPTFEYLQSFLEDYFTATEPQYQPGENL

[6] = biological target: CSK (Homo sapiens, UniProt P41240); conditions: 10 μM
CSK, sequence (P41240 whole entry): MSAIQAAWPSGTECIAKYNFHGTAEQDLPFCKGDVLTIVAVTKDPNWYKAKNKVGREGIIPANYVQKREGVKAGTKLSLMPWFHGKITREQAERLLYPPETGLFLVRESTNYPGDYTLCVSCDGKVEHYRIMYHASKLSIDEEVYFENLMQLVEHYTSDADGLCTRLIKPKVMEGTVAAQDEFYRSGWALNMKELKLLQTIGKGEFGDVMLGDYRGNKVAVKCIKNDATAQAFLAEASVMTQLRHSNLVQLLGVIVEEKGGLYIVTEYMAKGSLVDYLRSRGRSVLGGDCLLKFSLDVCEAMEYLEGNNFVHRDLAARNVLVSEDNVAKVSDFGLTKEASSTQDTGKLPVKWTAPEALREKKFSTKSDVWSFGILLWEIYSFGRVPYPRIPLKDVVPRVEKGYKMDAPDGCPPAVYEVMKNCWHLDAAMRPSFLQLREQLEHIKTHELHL

[7] = biological target: FLT1 (Homo sapiens, UniProt P17948); conditions: 10 μM
FLT1, sequence (P17948 27-1338): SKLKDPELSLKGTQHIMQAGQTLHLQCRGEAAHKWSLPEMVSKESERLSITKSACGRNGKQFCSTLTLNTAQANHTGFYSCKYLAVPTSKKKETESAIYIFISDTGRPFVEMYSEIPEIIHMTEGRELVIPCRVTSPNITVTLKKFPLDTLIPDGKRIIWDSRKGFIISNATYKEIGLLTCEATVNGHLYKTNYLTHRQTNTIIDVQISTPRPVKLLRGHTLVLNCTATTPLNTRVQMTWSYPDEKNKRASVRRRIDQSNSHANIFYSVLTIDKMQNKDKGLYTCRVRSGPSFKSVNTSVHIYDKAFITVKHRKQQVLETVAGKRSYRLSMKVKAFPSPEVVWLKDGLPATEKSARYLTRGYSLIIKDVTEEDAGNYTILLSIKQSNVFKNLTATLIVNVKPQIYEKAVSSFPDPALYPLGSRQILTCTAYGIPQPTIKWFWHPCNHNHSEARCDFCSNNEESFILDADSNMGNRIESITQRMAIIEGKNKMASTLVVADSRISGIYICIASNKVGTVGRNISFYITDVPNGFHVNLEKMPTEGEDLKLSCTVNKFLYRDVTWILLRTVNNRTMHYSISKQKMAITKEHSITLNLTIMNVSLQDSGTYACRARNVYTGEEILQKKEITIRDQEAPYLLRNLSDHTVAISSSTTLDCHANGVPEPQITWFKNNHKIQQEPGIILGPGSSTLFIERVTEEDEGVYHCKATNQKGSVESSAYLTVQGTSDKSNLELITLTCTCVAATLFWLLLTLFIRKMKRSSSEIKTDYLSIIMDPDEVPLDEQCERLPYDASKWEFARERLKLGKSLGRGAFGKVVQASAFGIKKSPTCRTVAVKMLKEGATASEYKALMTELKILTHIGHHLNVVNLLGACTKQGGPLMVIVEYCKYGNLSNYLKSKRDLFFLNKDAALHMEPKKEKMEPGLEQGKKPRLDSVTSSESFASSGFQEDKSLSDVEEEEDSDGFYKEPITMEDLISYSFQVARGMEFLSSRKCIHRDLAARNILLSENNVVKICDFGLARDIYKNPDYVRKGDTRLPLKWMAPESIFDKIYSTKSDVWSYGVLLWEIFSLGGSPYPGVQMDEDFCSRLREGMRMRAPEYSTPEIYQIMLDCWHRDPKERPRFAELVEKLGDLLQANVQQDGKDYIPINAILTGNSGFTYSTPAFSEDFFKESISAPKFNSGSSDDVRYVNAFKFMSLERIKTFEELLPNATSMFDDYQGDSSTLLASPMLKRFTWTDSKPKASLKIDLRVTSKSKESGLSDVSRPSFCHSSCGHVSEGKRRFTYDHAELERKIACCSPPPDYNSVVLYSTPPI

[8] = biological target: T4, ITK (Homo sapiens, UniProt Q08881); test: biochemical; conditions: read-out: Percent control
T4 sequence (Q08881 1-620): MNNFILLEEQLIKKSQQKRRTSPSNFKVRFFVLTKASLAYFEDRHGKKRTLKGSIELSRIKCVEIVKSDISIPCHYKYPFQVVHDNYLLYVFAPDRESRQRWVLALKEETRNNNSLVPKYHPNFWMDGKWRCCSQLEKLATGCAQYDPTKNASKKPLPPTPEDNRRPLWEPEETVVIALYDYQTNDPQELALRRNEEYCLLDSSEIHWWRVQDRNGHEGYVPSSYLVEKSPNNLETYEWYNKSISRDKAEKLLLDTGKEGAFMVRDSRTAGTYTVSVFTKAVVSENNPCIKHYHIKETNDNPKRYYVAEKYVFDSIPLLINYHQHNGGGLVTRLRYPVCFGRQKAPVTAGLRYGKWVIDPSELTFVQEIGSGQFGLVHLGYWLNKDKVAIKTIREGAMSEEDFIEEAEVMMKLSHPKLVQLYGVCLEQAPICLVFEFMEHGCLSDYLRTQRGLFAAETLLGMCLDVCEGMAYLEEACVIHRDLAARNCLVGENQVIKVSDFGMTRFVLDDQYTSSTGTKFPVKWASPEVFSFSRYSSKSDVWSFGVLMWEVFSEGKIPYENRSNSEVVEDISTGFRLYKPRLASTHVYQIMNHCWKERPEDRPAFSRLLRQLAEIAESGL

SMILES | Percent control ([1]; FLT3(N841I), 10 μM) [%] | Percent control [2] [%] | Percent control [3] [%] | Percent control [4] [%] | Percent control [5] [%] | Percent control [6] [%] | Percent control [7] [%] | Percent control [1] | remaining activity at 10 µM [8] [%]
Cc1ccc(NC(=O)c2ccc(CN3CCN(C)CC3)cc2)cc1Nc1nccc(-c2cccnc2)[n+]1[Pt-2]1([Cl])[NH2+]C2CCCCC2[NH2+]1 (stereo not shown) [1b, oxaliplatin-imatinib] | 72 | 94 | 100 | 58 | 78 | 100 | 85 | – | –
C#Cc1cccc(Nc2c3cc(OCCOC)c(OCCOC)cc3nc[n+]2[Pt@SP2-2]([NH3+])([NH3+])[Cl])c1 [2a, cisplatin-erlotinib] | – | 90 | 100 | 75 | 72 | 100 | 88 | 70 | –
COc1cc2c(Nc3ccc(Br)cc3F)[n+]([Pt-2]3([Cl])[NH2+]C4CCCCC4[NH2+]3)cnc2cc1OCC1CCN(C)CC1 (stereo not shown) [3b, oxaliplatin-vandetanib] | – | 31 | 100 | 56 | 32 | 41 | – | 18 | –
C#Cc1cccc(Nc2ncnc3cc(OCCOC)c(OCCOC)cc23)c1 [Erlotinib] | – | – | – | – | – | – | – | – | 100
Cc1ccc(NC(=O)c2ccc(CN3CCN(C)CC3)cc2)cc1Nc1nccc(-c2cccnc2)n1 [Imatinib, reference compound] | 100 | 100 | 100 | 13.0 | – | – | 100 | – | 100
COc1cc2c(Nc3ccc(Br)cc3F)ncnc2cc1OCC1CCN(C)CC1 [Vandetanib, reference compound] | – | – | – | – | – | – | – | – | 100
